Laboratory results published in the supplement of paper PMC10307832.

Columns and labels:
Assay in all cases: relative viability (nuclei count vs DMSO), 5 days (fraction); higher = more cells survive
Afatinib + Luminespib = compound: CN(C)C/C=C/C(=O)Nc1cc2c(Nc3ccc(F)c(Cl)c3)ncnc2cc1O[C@H]1CCOC1 [Afatinib] + CCNC(=O)c1noc(-c2cc(C(C)C)c(O)cc2O)c1-c1ccc(CN2CCOCC2)cc1 [Luminespib] (partner 0.01 µM)
Summary of the method: (§1)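 For relative viability, nuclei counts in treated wells were divided by those in vehicle wells. Lung cancer cell lines had been pin-tool dosed in 1536-well plates the day after seeding and cultured for 5 days, then fixed and stained in one step (final 0.05% Triton X-100, 1% formaldehyde, 1 ug/ml Hoechst) and imaged at 4×. Doses were one drug alone or a fixed anchor-drug dose plus five library-drug doses (not always all listed) in √10 steps, and values are duplicate-plate medians.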

Afatinib + OSI-027 = compound: CN(C)C/C=C/C(=O)Nc1cc2c(Nc3ccc(F)c(Cl)c3)ncnc2cc1O[C@H]1CCOC1 [Afatinib] + COc1cccc2cc(-c3nc([C@H]4CC[C@H](C(=O)O)CC4)n4ncnc(N)c34)[nH]c12 [OSI-027] (partner 0.5 µM)
Summary of the method: as §1

Afatinib + Lapatinib = compound: CN(C)C/C=C/C(=O)Nc1cc2c(Nc3ccc(F)c(Cl)c3)ncnc2cc1O[C@H]1CCOC1 [Afatinib] + CS(=O)(=O)CCNCc1ccc(-c2ccc3ncnc(Nc4ccc(OCc5cccc(F)c5)c(Cl)c4)c3c2)o1 [Lapatinib] (partner 2 µM)
Summary of the method: as §1

Afatinib + Linsitinib = compound: CN(C)C/C=C/C(=O)Nc1cc2c(Nc3ccc(F)c(Cl)c3)ncnc2cc1O[C@H]1CCOC1 [Afatinib] + C[C@]1(O)C[C@@H](c2nc(-c3ccc4ccc(-c5ccccc5)nc4c3)c3c(N)nccn32)C1 [Linsitinib] (partner 1 µM)
Summary of the method: as §1

Cell Line | relative viability (Afatinib + Luminespib; first compound 0.005 µM) | relative viability (Afatinib + Luminespib; first compound 0.01581 µM) | relative viability (Afatinib + Luminespib; first compound 0.05 µM) | relative viability (Afatinib + Luminespib; first compound 0.1581 µM) | relative viability (Afatinib + Luminespib; first compound 0.5 µM) | relative viability (Afatinib + OSI-027; first compound 0.005 µM) | relative viability (Afatinib + OSI-027; first compound 0.01581 µM) | relative viability (Afatinib + OSI-027; first compound 0.05 µM) | relative viability (Afatinib + OSI-027; first compound 0.1581 µM) | relative viability (Afatinib + OSI-027; first compound 0.5 µM) | relative viability (Afatinib + Lapatinib; first compound 0.005 µM) | relative viability (Afatinib + Lapatinib; first compound 0.01581 µM) | relative viability (Afatinib + Lapatinib; first compound 0.05 µM) | relative viability (Afatinib + Lapatinib; first compound 0.1581 µM) | relative viability (Afatinib + Lapatinib; first compound 0.5 µM) | relative viability (Afatinib + Linsitinib; first compound 0.005 µM) | relative viability (Afatinib + Linsitinib; first compound 0.01581 µM) | relative viability (Afatinib + Linsitinib; first compound 0.05 µM) | relative viability (Afatinib + Linsitinib; first compound 0.1581 µM) | relative viability (Afatinib + Linsitinib; first compound 0.5 µM)
H3255 | 0.461 | 0.234 | 0.303 | 0.336 | 0.269 | 0.239 | 0.231 | 0.214 | 0.209 | 0.208 | 0.244 | 0.227 | 0.242 | 0.215 | 0.215 | 0.197 | 0.124 | 0.149 | 0.123 | 0.138
EPLC-272H | 0.239 | 0.482 | 0.228 | 0.267 | 0.172 | 0.279 | 0.203 | 0.231 | 0.213 | 0.211 | 0.941 | 0.826 | 0.941 | 0.863 | 0.924 | 1.14 | 0.926 | 0.832 | 0.776 | 0.736
PC-3 [JPC-3] | 0.54 | 0.402 | 0.445 | 0.277 | 0.415 | 0.257 | 0.271 | 0.23 | 0.182 | 0.238 | 0.445 | 0.425 | 0.428 | 0.472 | 0.416 | 0.593 | 0.451 | 0.439 | 0.461 | 0.392
NCI-H1793 | 0.19 | 0.215 | 0.238 | 0.168 | 0.173 | 0.237 | 0.211 | 0.168 | 0.233 | 0.146 | 0.679 | 0.733 | 0.962 | 0.995 | 0.467 | 0.566 | 0.431 | 0.61 | 0.461 | 0.514
EKVX | 0.714 | 0.858 | 0.58 | 0.191 | 0.298 | 0.565 | 0.509 | 0.438 | 0.149 | 0.231 | 0.191 | 0.18 | 0.188 | 0.208 | 0.198 | 0.702 | 0.768 | 0.421 | 0.171 | 0.134
ChaGo-K-1 | 0.688 | 0.652 | 0.566 | 0.499 | 0.579 | 0.625 | 0.516 | 0.515 | 0.585 | 0.469 |  |  |  |  |  |  |  |  |  | 
NCI-H23 | 0.226 |  | 0.2 | 0.209 | 0.216 | 0.585 | 0.611 | 0.54 | 0.599 | 0.47 | 1.34 | 1.23 | 1.08 | 1.04 | 1.01 | 0.601 | 0.628 | 0.584 | 0.523 | 0.486
EMC-BAC-2 | 1.23 | 1.13 | 1.13 | 1.04 | 1.16 | 0.371 | 0.355 | 0.418 | 0.378 | 0.352 | 0.888 | 0.858 | 0.892 | 0.941 | 0.91 | 0.747 | 0.684 | 0.697 | 0.59 | 0.572
LOU-NH91 | 0.319 | 0.295 | 0.325 | 0.326 | 0.311 | 0.491 | 0.404 | 0.477 | 0.4 | 0.518 | 0.76 | 0.754 | 0.806 | 0.736 | 0.683 | 0.527 | 0.551 | 0.58 | 0.534 | 0.591
LU99A | 0.198 | 0.294 | 0.25 | 0.343 | 0.305 | 0.294 | 0.297 | 0.295 | 0.287 | 0.292 | 1.08 | 1.07 | 1.02 | 0.979 | 0.871 | 0.509 | 0.562 | 0.488 | 0.453 | 0.477
NCI-H1395 | 0.733 | 0.781 | 0.664 | 0.7 | 0.665 | 0.587 | 0.561 | 0.688 | 0.681 | 0.592 | 1.13 | 0.965 | 1.22 | 1.02 | 0.897 | 1.43 | 1.13 | 1.22 | 1.19 | 1.13
NCI-H460 | 0.0369 | 0.0258 | 0.0533 | 0.0327 | 0.032 | 0.716 | 0.629 | 0.676 | 0.705 | 0.666 | 0.973 | 0.932 | 1.04 | 1.02 | 0.842 | 0.74 | 0.713 | 0.905 | 0.866 | 0.796
201T | 1.01 | 1.02 | 1.03 | 0.975 | 1.03 | 0.7 | 0.642 | 0.722 | 0.62 | 0.653 | 1.07 | 1.04 | 0.904 | 1.01 | 1.08 | 1.06 | 0.986 | 0.909 | 0.86 | 0.897
NCI-H1944 | 0.609 | 0.629 | 0.552 | 0.498 | 0.491 | 0.429 | 0.329 | 0.328 | 0.311 | 0.327 | 0.884 | 0.795 | 0.691 | 0.799 | 0.858 | 1.04 | 0.904 | 0.776 | 0.566 | 0.571
NCI-H2405 | 0.578 | 0.695 | 0.648 | 0.388 | 0.441 | 0.65 | 0.67 | 0.712 | 0.603 | 0.701 | 1.11 | 1.09 | 1.33 | 1.04 | 1.07 | 0.808 | 0.875 | 0.963 | 0.836 | 0.906
NCI-H1703 |  |  |  |  |  |  |  |  |  |  | 1.76 | 1.02 | 1.08 | 0.921 | 0.753 | 0.49 |  | 0.651 | 0.608 | 0.585
NCI-H1755 | 0.287 | 0.367 | 0.587 | 0.408 | 0.49 | 0.736 | 0.754 | 0.845 | 0.627 | 0.668 | 1.11 | 1.03 | 1.09 | 1.04 | 1.07 | 0.979 | 0.992 | 0.997 | 0.938 | 0.995
